Holding throughout (format): cell-based
Assay [1] concerns MLE-12 cells. Nature of the assay: Inhibitory effect on mitochondrial accumulation of ferrous ions (Mito-FerroGreen) under RSL3. Conditions: 1 μM RSL3, 8 hours, compound 0.01, 0.1, 1 μM, FIG. 6. As for the experimental part: To confirm the inhibitory effect on the mitochondrial accumulation of ferrous ions in lung epithelial cells, MILE-12 cells were seeded at 2×10^5 cells/well in a 12-well plate and cultured for 18 to 24 hours. Example Compound 29 and Fer-1 were diluted to have the final concentration of 0.01, 0.1, and 1 μM and added to each well, and the cells were cultured for 10 minutes. Afterward, RSL3 was treated to have the final concentration of 1 μM, and the cells were cultured for 8 hours. To confirm the inhibitory effect on the mitochondrial accumulation of ferrous ions, Mito-FerroGreen (DOJINDO; M489) was used. According to the manufacturer's protocol, the Mito-FerroGreen was diluted in the culture broth to have the final concentration of 1 μM, and fluorescence staining was performed after a 30-minute reaction. The MLE-12 cells that were fluorescence-stained with Mito-FerroGreen were detached from the 12-well plate using 0.25% trypsin-EDTA and transferred to a microtube. Fluorescence (Ex/Em=505 nm/535 nm) was measured using, BD FACSLyric™, and the relative change compared to the control was calculated.

For assay [2], the system named is cardiac cells (H9C2). Nature of the assay: Protective effect against cell death due to RSL3 (LDH release), H9C2. To be noted: RSL3 0.5 μM, 24 hours. Here is the method:
(§1) To confirm cell death protection effects on cardiac cells, adrenal medullary cells, renal fibroblasts, retinal epithelial cells, lung epithelial cells, renal proximal tubular epithelial cells, hippocampal neurons and fibroblasts, each type of cells were seeded at 4×10^3 to 1.2×10^4 cells/well in a 96-well plate and cultured for 18 to 24 hours. The example compounds were diluted to have the final concentration of 0.001, 0.003, 0.01, 0.3, 1, 3, and 10 μM, respectively, and then added to different wells and cultured for 15 to 20 minutes. […] To confirm the cell death protection effect of the example compounds, the degree of extracellular secretion of lactate dehydrogenase (LDH) was measured using a cytotoxicity LDH assay kit [Dojindo; CK12]. Briefly, at the end of 24-hour treatment of each type of cells with RSL3, 70 μL of the supernatant was taken from the 96-well plate where the cells were cultured and transferred to a new 96-well plate. The assay buffer included in the kit was added at 70 μL/well (equal to that of the sample) and the plate was covered with foil to block light and allowed to react for 15 to 20 minutes at room temperature. While observing a color change of the sample, 35 µL/well of a stop solution was added, an absorbance at 490 nm was measured using an iD3 spectrophotometer, and an EC50 value was calculated.
For orientation: LDH in the medium is a marker of cell lysis.

Assay [3] deals with fibroblasts (NIH/3T3). Nature of the assay: Protective effect against cell death due to RSL3 (LDH release), NIH/3T3. To be noted: 24 hours. As for the experimental part: as §1
The subject of assay [4] is MLE-12 cells. Nature of the assay: Inhibitory effect on intracellular accumulation of ferrous ions (FerroOrange) under RSL3. Conditions: 1 μM RSL3, 8 hours, FIG. 5. Here is the method:
To confirm the inhibitory effect on intracellular accumulation of ferrous ions in lung epithelial cells, MILE-12 cells were seeded at 2×10^5 cells/well in a 12-well plate and cultured for 18 to 24 hours. Example Compound 29 and Fer-1 were diluted to have the final concentration of 0.01, 0.1, 1, and 10 μM and added to each well, and the cells were cultured for 10 minutes. Afterward, RSL3 was treated to have the final concentration of 1 M, and the cells were cultured for 8 hours. To confirm the inhibitory effect on intracellular accumulation of ferrous ions, FerroOrange (DOJINDO; F374) was used. According to the manufacturer's protocol, FerroOrange was diluted in the culture broth to have the final concentration of 1 M and added, and fluorescence staining was performed after a 30-minute reaction. The MLE-12 cells that were fluorescence-stained with FerroOrange were detached from the 12-well plate using 0.25% trypsin-EDTA and transferred to a microtube. Fluorescence (Ex/Em=580 nm/[…]) was measured using BD FACSLyric™, and the relative change compared to the control (RSL3-untreated group) was calculated.

Assay [5] concerns lung epithelial cells (MLE-12). Nature of the assay: Protective effect against cell death due to RSL3 (LDH release), MLE-12. To be noted: 24 hours. Here is the method:
as §1

For assay [6], the system named is renal proximal tubular epithelial cells (HK2). Nature of the assay: Protective effect against cell death due to RSL3 (LDH release), HK2. To be noted: RSL3 0.3 μM, 24 hours. As for the experimental part:
as §1

In assay [7] the test system is hippocampal neurons (HT-22). Nature of the assay: Protective effect against cell death due to RSL3 (LDH release), HT-22. Conditions: RSL3 0.3 μM, 24 hours. As for the experimental part:
as §1

The subject of assay [8] is renal fibroblasts (NRK-49F). Nature of the assay: Protective effect against cell death due to RSL3 (LDH release), NRK-49F. To be noted: RSL3 3 μM, 24 hours. Here is the method: as §1
Assay [9] deals with MLE-12 cells. Nature of the assay: Inhibitory effect on cytosolic ROS (CM-H2DCFDA) under RSL3. Conditions: 1 μM RSL3, 2 hours, compound 0.01, 0.1, 1 μM, FIG. 3. As for the experimental part:
To confirm the protective effect against cyto-ROS in lung epithelial cells, MLE-12 cells were seeded at 2×10^5 cells/well in a 12-well plate, and cultured for 18 to 24 hours. Example Compound 29 and Fer-1 were diluted to have the final concentration of 0.01, 0.1, and 1 μM and added to each well, and the cells were cultured for 10 minutes. Afterward, RSL3 was treated to have the final concentration of 1 M, and the cells were cultured for 2 hours. To confirm the inhibitory effect on cyto-ROS, the general oxidative stress indicator CM-H2DCFDA (Invitrogen™; C6827) was used. According to the manufacturer's protocol, CM-H2DCFDA was diluted in the culture broth to have the final concentration of 5 μM, and fluorescence staining was performed after a 30-minute reaction. The MLE-12 cells that were fluorescence-stained with CM-H2DCFDA were detached from the 12-well plate using 0.25% trypsin-EDTA and transferred to a microtube. Fluorescence (Ex/Em=492˜495 nm/517-527 nm) was measured using BD FACSLyric™, and the relative change compared to the control (RSL3-untreated group) was calculated.

For orientation: EC50 means the midpoint of the concentration-response curve. Lower therefore signals greater potency. For the compound `OCCOCCOCc1cc(NC2CCOCC2)c2[nH]c(-c3ccccc3)cc2c1` [Example 29, 2-(2-((2-phenyl-7-((tetrahydro-2H-pyran-4-yl)amino)-1H-indol-5-yl)methoxy)ethoxy)ethan-1-ol], the “mitochondrial ferrous ions increased by RSL3 treatment” value in assay [1] was “significantly reduced mitochondrial ferrous ion levels at 0.01, 0.1, and 1 M”. The EC50 is not above 100 nM in assay [2] (Rattus norvegicus); 100 to 1000 nM in [3] (Mus musculus, NIH3T3, RSL3 3 μM); not above 100 nM in assay [5] (MLE12, RSL3 1 μM); not above 100 nM in [6] (Epithelial cell); not above 100 nM in assay [7] (Mus musculus); not above 100 nM in assay [8] (Rattus norvegicus). Also, the “intracellular ferrous ions increased by RSL3 treatment” value in [4] was “significantly decreased at 0.1 and 1 μM”. Further, the “cyto-ROS increased by RSL3 treatment” value in assay [9] was “significantly reduced lipid ROS levels at 0.1 and 1 μM”.

For `CCOC(=O)c1ccc(NC2CCCCC2)c(N)c1` [Fer-1, ferrostatin-1, reference compound], in assay [1], the “mitochondrial ferrous ions increased by RSL3 treatment” value is “significantly reduced mitochondrial ferrous ion levels at 0.1 and 1 μM”. Also, the EC50 in assay [2] was not above 100 nM; in assay [3] (RSL3 3 μM), 100 to 1000 nM; in assay [5] (RSL3 1 μM), 100 to 1000 nM; in [6], not above 100 nM; in assay [7] it was 100 to 1000 nM; in assay [8] it was not above 100 nM. Moreover, the “intracellular ferrous ions increased by RSL3 treatment” value in assay [4] is “significantly decreased at 0.1 and 1 μM”. In addition, the “cyto-ROS increased by RSL3 treatment” value in assay [9] is “significantly reduced lipid ROS levels at 0.01, 0.1 and 1 μM”.

The values above are taken from US20260159481A1, “INDOLE DERIVATIVE WITH SUBSTITUENT AND PHARMACEUTICAL USE” (MITOIMMUNE THERAPEUTICS INC., priority 2023, published 2026).
